According to patent US11576866B2, “Gastric residence systems for sustained delivery of adamantane-class drugs” (Lyndra Therapeutics, Inc., priority 2016, dated 2023):

How the values were obtained:
[1] = Therapeutic plasma concentrations of memantine (literature); assay type: in vivo; settings: conversion of 1 micromolar
Procedure: The maximum therapeutically relevant concentration of memantine is approximately 1 micromolar (Rammes et al., Curr. Neuropharmacol. 6(1): 55-78 (2008)), corresponding to a plasma level of about 180 ng/mL. A recommended therapeutic range is about 90 ng/mL to 150 ng/mL, while the laboratory alert value is 300 ng/mL (Hiemke et al., Pharmacopsychiatry 44:195 (2011)).

[2] = human; input parameter of simulation; cited from earlier work
[3] = cited from earlier work
[4] = Thermal stability of memantine during hot melt processing; assay type: physicochemical; settings: blended with polymer (20% drug, 2% P407, 20% Eudragit RS, PCL); up to 160° C. for up to 20 minutes
Procedure: The stability of memantine under conditions of hot melt processing was tested. The formulation used for hot melt processing was 20% drug, 0.5% SiO2, 0.5% alpha tocopherol, 2% P407, 20% Eudragit RS, with the balance of material made up of PCL.

[5] = dog, one compartment model; assumed input of the analysis; cited from earlier work
[6] = PCL/SGF partition coefficient; assay type: physicochemical; settings: 5:1 PCL diol (MW 530):ethyl acetate vs FaSSGF
Excerpt: Partitioning behavior of an adamantane-class drug can be measured between a polycaprolactone phase (PCL phase) and a simulated gastric fluid phase (SGF phase), to give the partition coefficient PPCL-SGF between the two phases. Log PPCL-SGF can also be calculated. A 5:1 mixture of polycaprolactone diol (MW 530):ethyl acetate can be used as the PCL phase, and fasted-state simulated gastric fluid (FaSSGF) can be used as the SGF phase, such that PPCL-SGF=(concentration in polycaprolactone diol)/(concentration in FaSSGF)).
Partitioning of active pharmaceutical ingredient (API), such as an adamantane-class drug such as memantine, between the structural polymer, polycaprolactone (PCL), and fasted state simulated gastric fluid (FaSSGF) is of interest for predicting API release rate from PCL-based formulations. To measure the PCL-SGF partition coefficient of an API, a concentrated stock solution of API was added to a mixture of 1 mL FaSSGF and 1 mL of 5:1 PCL diol (MW 530):ethyl acetate. The sample was vortexed and centrifuged at 10000 rpm for 5 minutes. The SGF phase was analyzed by HPLC to measure drug concentration. The PCL phase was diluted in methanol prior to quantification on HPLC.

plasma level corresponding to maximum therapeutically relevant concentration [1]: about 180 ng/mL
degradation during hot melt processing [4]: without significant degradation
PCL/SGF Partition Coefficient [6]: 0.28
Structure (SMILES): CC12CC3CC(C)(C1)CC(N)(C3)C2 [memantine]
clearance (CL) [2]: 5.2 L/h
mean volume of distribution [2]: 9 to 11 L/kg
rate of absorption (Ka) [2]: 0.21 h⁻¹
laboratory alert value (plasma) ([3]; Hiemke et al. 2011): 300 ng/mL
maximum therapeutically relevant concentration ([3]; Rammes et al. 2008): approximately 1 micromolar
elimination rate constant (ke) [5]: 0.076 h⁻¹
